These results are taken from patent publication US12528818B2, “Compositions and methods for inhibition of RAS” (Leidos Biomedical Research, Inc., priority 2021, dated 2026).

The test system of this assay is pERK in NCI-H358 cells. Description: Cell-based pERK HTRF assay (pERK inhibition in H358 cells). As to conditions: Homo sapiens, NCI-H358, 0.5 h, pERK inhibition IC50, NCI-H358 cells, 30 min incubation; read-out: PERK in H358 cell.

As to `C=CC(=O)N1CCC(N(CC)c2nc(OC[C@@]34CCCN3C[C@H](F)C4)nc3c(C#N)c(-c4ccc(F)c5sc(N)c(C#N)c45)ccc23)[C@H]1C` (stereo partly drawn) [Compound 415, 4-((1-acryloyl-2-methylpyrrolidin-3-yl)(ethyl)amino)-7-(2-amino-3-cyano-7-fluorobenzo[b]thiophen-4-yl)-2-(((2R,7aS)-2-fluorotetrahydro-1H-pyrrolizin-7a(5H)-yl)methoxy)quinazoline-8-carbonitrile], the IC50 is less than 100 nM.

In the case of `C=CC(=O)N1CCC(N(C)c2nc(OC[C@@H]3CCCN3C)nc3c(F)c(-c4ccc(F)c5sc(N)c(C#N)c45)c(Cl)cc23)[C@H]1COC` (stereo partly drawn) [Compound 416], the IC50 was less than 100 nM.

With `C=CC(=O)N1CCC(N(C)c2nc(OC[C@@H]3CCCN3C)nc3cc(-c4ccc(F)c5sc(N)c(C#N)c45)c(F)cc23)[C@H]1C` (stereo partly drawn) [Compound 417], the IC50 fell in the range of 100 to 1000 nM.

Consider `C=CC(=O)N1CC[C@@H](N(CC)c2nc(OC[C@@]34CCCN3C[C@H](F)C4)nc3c(F)c(-c4ccc(F)c5sc(N)c(C#N)c45)c(Cl)cc23)[C@H]1C` [Compound 418], for which the IC50 is 100 to 1000 nM. The result for `C=CC(=O)N1CCC(N(C)c2nc(OC[C@@H]3CCCN3C)nc3c(F)c(-c4ccc(F)c5sc(N)c(C#N)c45)c(Cl)cc23)[C@H]1C` (stereo partly drawn) [Compound 419] reads less than 100 nM; that for `C=CC(=O)N1CCC(N(C)c2nc(OC[C@@H]3CCCN3C)nc3c(F)c(-c4ccc(F)c5sc(N)c(C#N)c45)ccc23)[C@H]1C` (stereo partly drawn) [Compound 420], less than 100 nM. As for `C=CC(=O)N1CCC(N(CC)c2nc(OC[C@@]34CCCN3C[C@H](F)C4)nc3c(F)c(-c4ccc(F)c5sc(N)c(C#N)c45)ccc23)[C@H]1C` (stereo partly drawn) [Compound 421], the IC50 is less than 100 nM. The result for `C=CC(=O)N1C[C@H](C)N(c2nc(OC[C@@]34CCCN3C[C@H](F)C4)nc3c(Cl)c(-c4ccc(F)c5sc(N)c(C#N)c45)c(C#N)cc23)C[C@H]1C` [Compound 422] reads less than 100 nM; that for `C=CC(=O)N1CCC(N(C)c2nc(OC[C@@H]3C[C@@H](F)CN3C)nc3c(F)c(-c4ccc(F)c5sc(N)c(C#N)c45)ccc23)[C@H]1COC` (stereo partly drawn) [Compound 423], less than 100 nM; that for `C=CC(=O)N1CCC(N(C)c2nc(OC[C@@H]3C[C@@H](OC)CN3C)nc3c(F)c(-c4ccc(F)c5sc(N)c(C#N)c45)ccc23)[C@H]1COC` (stereo partly drawn) [Compound 424], less than 100 nM.

Regarding `C=CC(=O)N1CCC(N(C)c2nc(OC[C@@]34CCCN3C[C@H](F)C4)nc3c(Cl)c(-c4ccc(F)c5sc(N)c(C#N)c45)c(C#N)cc23)[C@H]1C` (stereo partly drawn) [Compound 425], the IC50 lay within 100 to 1000 nM. To `C=CC(=O)N1CCC(N(C)c2nc(OC[C@@H]3CCCN3C)nc3c(F)c(-c4ccc(F)c5sc(N)c(C#N)c45)c(C(F)(F)F)cc23)C1COC` (stereo partly drawn) [Compound 426, 4-(4-((1-acryloyl-2-(methoxymethyl)pyrrolidin-3-yl)(methyl)amino)-8-fluoro-2-(((S)-1-methylpyrrolidin-2-yl)methoxy)-6-(trifluoromethyl)quinazolin-7-yl)-2-amino-7-fluorobenzo[b]thiophene-3-carbonitrile] belongs less than 100 nM; to `C=CC(=O)N1CCC(N(CC)c2nc(OC[C@@H]3C[C@@H](OC)CN3C)nc3c(F)c(-c4ccc(F)c5sc(N)c(C#N)c45)c(C(F)(F)F)cc23)[C@H]1COC` (stereo partly drawn) [Compound 427], less than 100 nM. The result for `C=CC(=O)N1CCC(N(CC)c2nc(OC[C@@]34CCCN3C[C@H](F)C4)nc3c(C#N)c(-c4ccc(F)c5sc(N)c(C#N)c45)ccc23)[C@H]1COC` (stereo partly drawn) [Compound 428] reads 100 to 1000 nM; that for `C=CC(=O)N1CCC(N(C)c2nc(OC[C@@H]3C[C@@H](F)CN3C)nc3c(F)c(-c4ccc(F)c5sc(N)c(C#N)c45)ccc23)[C@H]1C` (stereo partly drawn) [Compound 429], less than 100 nM.

As for `C=CC(=O)N1CCC(N(C)c2nc(OC[C@@H]3C[C@@H](OC)CN3C)nc3c(F)c(-c4ccc(F)c5sc(N)c(C#N)c45)ccc23)[C@H]1C` (stereo partly drawn) [Compound 430], the IC50 was less than 100 nM. Regarding `C=CC(=O)N1CCC(N(CC)c2nc(OC[C@@]34CCCN3C[C@H](F)C4)nc3cc(-c4ccc(F)c5sc(N)c(C#N)c45)ccc23)[C@H]1C` (stereo partly drawn) [Compound 431], the IC50 is less than 100 nM. As to `C=CC(=O)N1CCC(N(C)c2nc(OC[C@@H]3CCCN3C)nc3c(F)c(-c4ccc(F)c5sc(N)c(C#N)c45)ccc23)[C@H]1COC` (stereo partly drawn) [Compound 432], the IC50 was in the range of 100 to 1000 nM. For `C=CC(=O)N1CCC(N(C)c2nc(OC[C@@H]3CC4(CC4)CN3C)nc3c(F)c(-c4ccc(F)c5sc(N)c(C#N)c45)ccc23)[C@H]1COC` (stereo partly drawn) [Compound 433], the IC50 was less than 100 nM. For `C=CC(=O)N1CCC(N(C)c2nc(OC[C@@H]3CC4(CC4)CN3C)nc3c(F)c(-c4ccc(F)c5sc(N)c(C#N)c45)ccc23)[C@H]1C` (stereo partly drawn) [Compound 436], the IC50 is less than 100 nM.

Regarding `C=CC(=O)N1CC[C@@H](N(CC)c2nc(OC[C@@]34CCCN3C[C@H](F)C4)nc3cc(-c4ccc(F)c5sc(N)c(C#N)c45)c(F)cc23)[C@H]1COC` [Compound 437], the IC50 was 100 to 1000 nM. Take `C=CC(=O)N1CCC(N(CC)c2nc(OC[C@@H]3CCCN3C)nc3c(F)c(-c4ccc(F)c5sc(N)c(C#N)c45)c(C(F)(F)F)cc23)[C@H]1COC` (stereo partly drawn) [Compound 438]: the IC50 is less than 100 nM. As for `C=CC(=O)N1CC[C@@H](N(CC)c2nc(OC[C@@]34CCCN3C[C@H](F)C4)nc3cc(-c4ccc(F)c5sc(N)c(C#N)c45)c(C#N)cc23)[C@H]1COC` [Compound 439], the IC50 lay within 100 to 1000 nM. To `C=CC(=O)N1CCC(N(CC)c2nc(OC[C@@]34CCCN3C[C@H](F)C4)nc3cc(-c4ccc(F)c5sc(N)c(C#N)c45)ccc23)[C@H]1COC` (stereo partly drawn) [Compound 440] belongs 100 to 1000 nM. To `C=CC(=O)N1CCC(N(C)c2nc(OC[C@@H]3CCCN3C)nc3cc(-c4ccc(F)c5sc(N)c(C#N)c45)c(F)cc23)[C@H]1COC` (stereo partly drawn) [Compound 441] belongs 100 to 1000 nM; to `C=CC(=O)N1CC[C@@H](N(CC)c2nc(OC[C@@]34CCCN3C[C@H](F)C4)nc3c(F)c(-c4ccc(F)c5sc(N)c(C#N)c45)c(C(F)(F)F)cc23)[C@H]1COC` [Compound 442], less than 100 nM. In the case of `C=CC(=O)N1CCC(N(C)c2nc(OC[C@@H]3C[C@@H](F)CN3C)nc3c(F)c(-c4ccc(F)c5sc(N)c(C#N)c45)c(C(F)(F)F)cc23)[C@H]1COC` (stereo partly drawn) [Compound 443], the IC50 is less than 100 nM. The result for `C=CC(=O)N1CCC(N(C)c2nc(OC[C@@H]3C[C@@H](F)CN3C)nc3cc(-c4ccc(F)c5sc(N)c(C#N)c45)c(C#N)cc23)[C@H]1COC` (stereo partly drawn) [Compound 444] reads less than 100 nM; that for `C=CC(=O)N1CCC(N(CC)c2nc(OC[C@@H]3CC4(CC4)CN3C)nc3c(F)c(-c4ccc(F)c5sc(N)c(C#N)c45)c(C(F)(F)F)cc23)[C@H]1COC` (stereo partly drawn) [Compound 445], less than 100 nM.

With `C=CC(=O)N1CCC(N(C)c2nc(OC[C@@H]3CC4(CC4)CN3C)nc3cc(-c4ccc(F)c5sc(N)c(C#N)c45)c(C#N)cc23)[C@H]1COC` (stereo partly drawn) [Compound 446], the IC50 lay in the range of 100 to 1000 nM. In the case of `C=CC(=O)N1C[C@H](C)N(c2nc(OC[C@]3(C)CCCN3C)nc3c(F)c(-c4ccc(F)c5sc(N)c(C#N)c45)c(C(F)(F)F)cc23)C[C@H]1C` [Compound 447, 4-(4-((2S,5R)-4-acryloyl-2,5-dimethylpiperazin-1-yl)-2-(((S)-1,2-dimethylpyrrolidin-2-yl)methoxy)-8-fluoro-6-(trifluoromethyl)quinazolin-7-yl)-2-amino-7-fluorobenzo[b]thiophene-3-carbonitrile], the IC50 was less than 100 nM. To `C=CC(=O)N1CCC(N(C)c2nc(OC[C@@H]3CC4(CC4)CN3C)nc3c(F)c(-c4ccc(F)c5sc(N)c(C#N)c45)c(Cl)cc23)[C@H]1C` (stereo partly drawn) [Compound 448] belongs 100 to 1000 nM; to `C=CC(=O)N1CCC(N(C)c2nc(OC[C@@H]3C[C@@H](F)CN3C)nc3c(F)c(-c4ccc(F)c5sc(N)c(C#N)c45)c(Cl)cc23)[C@H]1C` (stereo partly drawn) [Compound 449], 100 to 1000 nM; to `C=CC(=O)N1CCC(N(C)c2nc(OC[C@@H]3C[C@@H](OC)CN3C)nc3c(F)c(-c4ccc(F)c5sc(N)c(C#N)c45)c(Cl)cc23)[C@H]1C` (stereo partly drawn) [Compound 450], less than 100 nM. To `C=CC(=O)N1CCC(N(C)c2nc(OC[C@@H]3CCCN3CC)nc3c(F)c(-c4ccc(F)c5sc(N)c(C#N)c45)c(C(F)(F)F)cc23)[C@H]1C` (stereo partly drawn) [Compound 451] belongs less than 100 nM.

Consider `C=CC(=O)N1CCC(N(CC)c2nc(OC[C@@H]3C[C@@H](F)CN3C)nc3c(F)c(-c4ccc(F)c5sc(N)c(C#N)c45)c(C(F)(F)F)cc23)[C@H]1COC` (stereo partly drawn) [Compound 453], for which the IC50 was less than 100 nM.

Turning to `C=CC(=O)N1CCC(N(C)c2nc(OC[C@@H]3C[C@@H](OC)CN3C)nc3c(F)c(-c4ccc(F)c5sc(N)c(C#N)c45)c(C(F)(F)F)cc23)[C@H]1COC` (stereo partly drawn) [Compound 454], the IC50 is less than 100 nM. To `C=CC(=O)N1CCC(N(C)c2nc(OC[C@@H]3CCCN3C)nc3cc(-c4ccc(F)c5sc(N)c(C#N)c45)c(C#N)cc23)[C@H]1COC` (stereo partly drawn) [Compound 455] belongs 100 to 1000 nM.

As to `C=CC(=O)N1CCC(N(C)c2nc(OC[C@@H]3CC4(CC4)CN3C)nc3c(F)c(-c4ccc(F)c5sc(N)c(C#N)c45)c(C(F)(F)F)cc23)[C@H]1COC` (stereo partly drawn) [Compound 456], the IC50 is less than 100 nM. In the case of `C=CC(=O)N1CCC(N(C)c2nc(OC)nc3c(F)c(-c4ccc(F)c5sc(N)c(C#N)c45)ccc23)[C@H]1C` (stereo partly drawn) [Compound 461], the IC50 is greater than 1000 nM. With `C=CC(=O)N1CCC(N(C)c2ncnc3c(F)c(-c4ccc(F)c5sc(N)c(C#N)c45)ccc23)[C@H]1C` (stereo partly drawn) [Compound 462], the IC50 is greater than 1000 nM.

As to `C=CC(=O)N1CC[C@@H](N(C)c2nc(OCC)nc3c(F)c(-c4ccc(F)c5sc(N)c(C#N)c45)ccc23)[C@H]1C` [Compound 463], the IC50 is greater than 1000 nM. The result for `C=CC(=O)N1CCC(N(C)c2nc(OC[C@@H]3CCCN3CC)nc3c(F)c(-c4ccc(F)c5sc(N)c(C#N)c45)c(Cl)cc23)[C@H]1C` (stereo partly drawn) [Compound 464] reads less than 100 nM; that for `C=CC(=O)N1CCC(N(C)c2nc(OC[C@@H]3C[C@@H](OC)CN3C)nc3cc(-c4ccc(F)c5sc(N)c(C#N)c45)c(C#N)cc23)[C@H]1COC` (stereo partly drawn) [Compound 465], 100 to 1000 nM. To `C=CC(=O)N1CCC(N(C)c2nc(OCCOC)nc3c(F)c(-c4ccc(F)c5sc(N)c(C#N)c45)ccc23)[C@H]1C` (stereo partly drawn) [Compound 466] belongs greater than 1000 nM.
